Measured values reported in patent US9279010B2, “Treatment of inflammatory bowel diseases with mammal beta defensins” (Defensin Therapeutics ApS, priority 2008, dated 2016).

How the values were obtained:
[1] = test system: human peripheral blood mononuclear cells (PBMC); experiment: TNF production from LPS-treated human PBMC, CBA (Example 5); type: cell-based; conditions: Table 21
Procedure: (§1) Peripheral blood was drawn from healthy volunteers (with approval from the relevant ethical committee in Denmark). Heparinized blood was diluted 1/1 v/v with RPMI and were subjected to Ficoll density centrifugation within 2 h of drawing. Plasma was collected from the top from individual donors and was kept on ice until it was used at 2% in the culture medium (autologous culture medium). Isolated PBMC were resuspended in autologous culture medium and seeded in 96-well culture plates with 255.000 cells per well in a total of 200 μl. […] The concentrations used for stimulation were optimized on 3 different donors in initial experiments, for LPS two different concentrations were used to be sure to be on a cytokine level that is possible to modulate. In some experiments PBMC were treated with Dexamethason and Indomethacin alone and together with LPS or LTA as a control on downregulation of inflammatory cytokines. The supernatants were collected after incubation at 37° C. for 24 hours, and stored at −80° C. until cytokine measurement. Viability was measured by Alamar Blue (Biosource, DALL 1100) in all experiments and in some cases also by MTS (Promega) according to manufacturer's instruction and was in some experiments also judged by counting of the cells by a Nucleocounter.
(§2) Cytokine production in supernatants was measured by flow cytometry with a human inflammation cytometric bead array (CBA) according to manufacturer's instructions (BD) on a FACSarray flow cytometer. The following cytokines were measured: IL-8, IL-1β, IL-10, TNF, IL-12 p70, IL-6. In some experiments, cytokines were measured by ELISA kits from R&D systems (IL-10, TNF-α, IL-1β) according to the manufacturer′ instruction.
(§3) Example 5 was carried out essentially as described in Example 4.
(§4) In each table, all samples were tested on the same donor. SD means standard deviation.

[2] = test system: human peripheral blood mononuclear cells (PBMC); experiment: IL-10 production from LPS-treated human PBMC, CBA (Example 5); type: cell-based; conditions: for IL-10 / IL-10 % of control: Table 22
Procedure: as §1, §2, §4

[3] = test system: human peripheral blood mononuclear cells (PBMC); experiment: IL-1β production from LPS-treated human PBMC, CBA (Example 5, Table 23); type: cell-based
Procedure: as §1, §2, §3, §4

human PBMC = experiment: Toxicity to human PBMC (Example 5); type: cell-based
Procedure: as §1, §3

[4] = test system: human peripheral blood mononuclear cells (PBMC); experiment: TNF production from LPS-treated human PBMC, CBA (Example 7, Table 26); type: cell-based
Procedure: as §1, §2
(§5) Example 7 was carried out essentially as described in Example 4 for human PBMCs. […] The amino acid sequence of mBD3 is shown in SEQ ID NO:6. Mouse PBMCs were prepared as described below.

[5] = test system: mouse peripheral blood mononuclear cells (PBMC); experiment: TNF production from LPS-treated mouse PBMC, CBA (Example 7); type: cell-based, mouse (NMRI)
Procedure: as §5
Mouse peripheral blood mononuclear cells were isolated from blood of ten NMRI mice. In short, heparinized blood was diluted 1/1 v/v with RPMI and subjected to Ficoll density centrifugation within 2 h of drawing. Plasma was collected from the top and discarded. Isolated PBMC were resuspended in culture medium (RPMI 1640 (Gibco, 42401) w/ 1% penicillin and streptomycin and 1% L-Glutamine) and seeded in 96-well culture plates with 115.500 cells per well in a total of 200 μl. […] The supernatants were collected after incubation at 37° C. for 24 hours, and stored at −80° C. until cytokine measurement.
Cytokine production in supernatants was measured by flow cytometry with a mouse inflammation cytometric bead array (CBA) according to manufacturer's instructions (BD) on a FACSarray flow cytometer.

[6] = LPS 0.6 ng/ml, test compound 1 μg/ml
[7] = LPS 20 ng/ml, test compound 1 μg/ml
[8] = Medium (no LPS), test compound 1 μg/ml
[9] = LPS 0.6 ng/ml, test compound 10 μg/ml
[10] = LPS 20 ng/ml, test compound 10 μg/ml
[11] = Medium (no LPS), test compound 10 μg/ml

| Substance | TNF ([1]; 1 μg/ml, LPS 0.6 ng/ml) [pg/mL] | TNF % of control ([1]; 1 μg/ml, LPS 0.6 ng/ml) [%] | TNF ([1]; 1 μg/ml, LPS 20 ng/ml) [pg/mL] | TNF % of control ([1]; 1 μg/ml, LPS 20 ng/ml) [%] | TNF ([1]; 1 μg/ml, Medium) [pg/mL] | IL-10 ([2]; 1 μg/ml, LPS 0.6 ng/ml) [pg/mL] | IL-10 % of control ([2]; 1 μg/ml, LPS 0.6 ng/ml) [%] | IL-10 % of control ([2]; 1 μg/ml, LPS 20 ng/ml) [%] | IL-10 ([2]; 1 μg/ml, Medium) [pg/mL] | IL-1β [3, 6] [pg/mL] | IL-1β % of control [3, 6] [%] | IL-1β [3, 7] [pg/mL] | IL-1β % of control [3, 7] [%] | IL-1β [3, 8] [pg/mL] | toxicity to the cells (human PBMC; 40 μg/ml) | further results |
| --- | --- | --- | --- | --- | --- | --- | --- | --- | --- | --- | --- | --- | --- | --- | --- | --- |
| hBD3: human beta defensin 3 (SEQ ID NO:3), prepared using chemical synthesis | 528 | 73 | 451 | 21 | 0 | 71 | 107 | 137 | 0 | 331 | 45 | 568 | 22 | 0 | toxic to the cells | toxicity to the cells (human PBMC; 10 μg/ml): toxic to the cells |
| hBD4 variant: consists of amino acids 3-39 of hBD4, SEQ ID NO:5 (ELDRICGYGTARCRKKCRSQEYRIGRCPNTYACCLRK) | 468 | 64 | 778 | 36 | 0 | 90 | 136 | 157 | 0 | 286 | 39 | 1004 | 40 | 0 | toxic to the cells | TNF ([1]; 10 μg/ml, LPS 0.6 ng/ml): 211 pg/mL; TNF % of control ([1]; 10 μg/ml, LPS 0.6 ng/ml): 29%; TNF ([1]; 10 μg/ml, LPS 20 ng/ml): 139 pg/mL; TNF % of control ([1]; 10 μg/ml, LPS 20 ng/ml): 6%; TNF ([1]; 10 μg/ml, Medium): 0 pg/mL; IL-10 ([2]; 10 μg/ml, LPS 0.6 ng/ml): 92 pg/mL; IL-10 % of control ([2]; 10 μg/ml, LPS 0.6 ng/ml): 139%; IL-10 ([2]; 10 μg/ml, LPS 20 ng/ml): 187 pg/mL; IL-10 % of control ([2]; 10 μg/ml, LPS 20 ng/ml): 168%; IL-10 ([2]; 10 μg/ml, Medium): 0 pg/mL; Secretion of IL-10 ([2]; human PBMC with LPS, summary of Table 22): significantly and dose-dependently enhanced; IL-1β [3, 9]: 163 pg/mL; IL-1β % of control [3, 9]: 22%; IL-1β [3, 10]: 463 pg/mL; IL-1β % of control [3, 10]: 18%; IL-1β [3, 11]: 0 pg/mL |
| mBD3: mouse beta defensin 3 (SEQ ID NO:6), prepared with the same protocol as hBD2 (KINNPVSCLRKGGRCWNRCIGNTRQIGSCGVPFLKCCKRK; mat_peptide (1)..(40); listed as Mus musculus) |  |  |  |  |  |  |  |  |  |  |  |  |  |  |  | TNF [4, 7]: 384 pg/mL; TNF [4, 10]: 51 pg/mL; TNF ([4]; LPS 20 ng/ml, test compound 100 μg/ml): 166 pg/mL; TNF [4, 8]: 2 pg/mL; TNF [4, 11]: 2 pg/mL; TNF ([4]; Medium (no LPS), test compound 100 μg/ml): 39 pg/mL; secretion of TNF ([4]; human PBMCs (Table 26)): downregulating the secretion of TNF from human PBMCs to the same extend as hBD2 and dexamethason; TNF ([5]; 1 μg/ml, LPS 20 ng/ml): 1600 pg/mL; TNF ([5]; 1 μg/ml, Medium): 347 pg/mL; TNF ([5]; 10 μg/ml, LPS 20 ng/ml): 297 pg/mL; TNF ([5]; 10 μg/ml, Medium): 180 pg/mL; TNF ([5]; 100 μg/ml, LPS 20 ng/ml): 195 pg/mL; TNF ([5]; 100 μg/ml, Medium): 182 pg/mL |
